pIC50: −log10 of the molar value.
Molecular target: T1, A2AR (hADORA2A-HEK293 cells) (Homo sapiens, UniProt P29274)
T1 construct: expressed in transfected cells; host or cells: HEK293 (hADORA2A-HEK293)
Assay: functional cAMP production assay (NECA-stimulated cAMP production, TR-FRET)
Assay type: cell-based
Conditions: inhibition of NECA (EC80)-stimulated cAMP production in A2AR-expressing HEK293 cells; read-out: A2AR Potency
Experimental: The antagonistic activities of the triazolotriazine derivatives of the present invention were measured in a functional cAMP production assay. The assay consists of NECA stimulation of cAMP production and its inhibition by A2AR antagonists in A2AR-expressing HEK293 cells (hADORA2A-HEK293). All cells were cultured in complete medium at 37° C. in 5% CO2. The cells were detached with pancreatin and collected at 200 g for 5 min. After resuspending the cells in fresh complete medium, the cell viability is counted using the trypan blue exclusion method. […] After the cells were diluted with Hank's buffered saline solution containing HEPES (5 mM), BSA stabilizer (0.1%) and […] Rolipram (10 μM), cells were loaded into white opaque 384-well plates (˜500 cells/well, 10 μl/well) and incubated with test compound at a suitable concentration range (11 concentrations) for 20 min at room temperature. Then the A2A receptor agonist NECA (final concentration=EC80, which was determined in the same experiment slightly earlier) was added to the sample and the mixture was incubated again for 30 min at 37° C. […] The inhibition rate (%) was calculated according to the following formula. The IC50 values were calculated from concentration−inhibition (%) curves after log transformation.

T1 sequence (P29274 whole entry): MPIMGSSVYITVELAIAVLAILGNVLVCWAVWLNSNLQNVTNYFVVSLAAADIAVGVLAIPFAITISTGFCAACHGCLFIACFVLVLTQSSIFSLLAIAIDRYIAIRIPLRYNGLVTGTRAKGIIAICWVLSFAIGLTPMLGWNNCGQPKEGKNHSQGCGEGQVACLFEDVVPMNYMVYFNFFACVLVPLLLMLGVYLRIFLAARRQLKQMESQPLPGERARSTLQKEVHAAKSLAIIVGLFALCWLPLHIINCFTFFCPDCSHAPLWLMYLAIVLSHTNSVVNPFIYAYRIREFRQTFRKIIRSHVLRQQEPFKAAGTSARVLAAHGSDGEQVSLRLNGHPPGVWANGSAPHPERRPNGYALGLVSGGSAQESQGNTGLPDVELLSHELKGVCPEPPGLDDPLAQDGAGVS

Compound | pIC50
Nc1nc(NCCc2ccc(-c3nn[nH]n3)cc2)nc2nc(-c3ccco3)nn12 [Example 125, N5-(4-(2H-Tetrazol-5-yl)phenethyl)-2-(furan-2-yl)-[1,2,4]triazolo[1,5-a][1,3,5]triazine-5,7-diamine] | 7.84
CNC(=O)c1ccc(CCNc2nc(N)n3nc(-c4ccco4)nc3n2)cc1 [Example 35, 4-(2-(7-Amino-2-(furan-2-yl)-[1,2,4]triazolo[1,5-a][1,3,5]triazin-5-ylamino)ethyl)-N-methylbenzamide] | 7.86
Nc1nc(NCCc2ccc(C(=O)NCCN3CCOCC3)cc2)nc2nc(-c3ccco3)nn12 [Example 12, 4-(2-((7-Amino-2-(furan-2-yl)-[1,2,4]triazolo[1,5-a][1,3,5]triazin-5-yl)amino)ethyl)-N-(2-morpholinoethyl)benzamide] | 7.57
CN1CCN(CCNC(=O)c2ccc(CCNc3nc(N)n4nc(-c5ccco5)nc4n3)cc2)CC1 [Example 13, 4-(2-((7-Amino-2-(furan-2-yl)-[1,2,4]triazolo[1,5-a][1,3,5]triazin-5-yl)amino)ethyl)-N-(2-(4-methylpiperazin-1-yl)ethyl)benzamide] | 7.48
NC(=O)c1ccc(CCNc2nc(N)n3nc(-c4ccco4)nc3n2)cc1 [Example 36, 4-(2-(7-Amino-2-(furan-2-yl)-[1,2,4]triazolo[1,5-a][1,3,5]triazin-5-ylamino)ethyl)benzamide] | 7.88
Nc1nc(NCCc2ccc(C(=O)N3CCC(F)CC3)cc2)nc2nc(-c3ccco3)nn12 [Example 17, (4-(2-((7-Amino-2-(furan-2-yl)-[1,2,4]triazolo[1,5-a][1,3,5]triazin-5-yl)amino)ethyl)phenyl)-(4-fluoropiperidin-1-yl)methanone] | 8.12
CC(C)(CO)NC(=O)c1ccc(CCNc2nc(N)n3nc(-c4ccco4)nc3n2)cc1 [Example 43, 4-(2-(7-Amino-2-(furan-2-yl)-[1,2,4]triazolo[1,5-a][1,3,5]triazin-5-ylamino)ethyl)-N-(1-hydroxy-2-methylpropan-2-yl)benzamide] | 7.77
Nc1nc(NCCc2ccc3cnccc3c2)nc2nc(-c3ccco3)nn12 [Example 27, 2-(Furan-2-yl)-N5-(2-(isoquinolin-6-yl)ethyl)-[1,2,4]triazolo[1,5-a][1,3,5]triazine-5,7-diaminee] | 8.04
Nc1nc(NCCc2ccc(C(=O)N3CCC(F)(F)CC3)cc2)nc2nc(-c3ccco3)nn12 [Example 16, (4-(2-((7-Amino-2-(furan-2-yl)-[1,2,4]triazolo[1,5-a][1,3,5]triazin-5-yl)amino)ethyl)phenyl)-(4,4-difluoropiperidin-1-yl)methanone] | 7.62
Nc1nc(NCCc2ccc(C(=O)N3CCCCC3)cc2)nc2nc(-c3ccco3)nn12 [Example 37, (4-(2-(7-Amino-2-(furan-2-yl)-[1,2,4]triazolo[1,5-a][1,3,5]triazin-5-ylamino)ethyl)-phenyl)(piperidin-1-yl)methanone] | 8.22
Nc1nc(NCCc2ccc(C(=O)NCCN3CCCC3)cc2)nc2nc(-c3ccco3)nn12 [Example 11, 4-(2-((7-Amino-2-(furan-2-yl)-[1,2,4]triazolo[1,5-a][1,3,5]triazin-5-yl)amino)ethyl)-N-(2-(pyrrolidin-1-yl)ethyl)benzamide] | 7.36
Nc1nc(NCCc2ccc(C(=O)N3CCc4ncccc4C3)cc2)nc2nc(-c3ccco3)nn12 [Example 45, (4-(2-(7-Amino-2-(furan-2-yl)-[1,2,4]triazolo[1,5-a][1,3,5]triazin-5-ylamino)ethyl)phenyl)-(7,8-dihydro-1,6-naphthyridin-6(5H)-yl)methanone] | 7.56
CC(C)N(C)C(=O)c1ccc(CCNc2nc(N)n3nc(-c4ccco4)nc3n2)cc1 [Example 42, 4-(2-(7-Amino-2-(furan-2-yl)-[1,2,4]triazolo[1,5-a][1,3,5]triazin-5-ylamino)ethyl)-N-isopropyl-N-methylbenzamide] | 7.71

From patent US11858942B2, “Triazolotriazine derivatives as A2A receptor antagonists” (ZHEJIANG VIMGREEN PHARMACEUTICALS, LTD., priority 2018, dated 2024)
